Consider eleven molecules from patent US4783401A (priority 1986, dated 1988).

Data set [1] has as its system V79 cells.
For data set [2], the system named is V79 cells. This is another data set of the same source.
Another data set deals with rabbit red cells. The following applies: in vivo.
The next data set concerns cells. The following applies: cited from earlier work.

On to `O=S(=O)(O)CCCNC1CCCCC1` [CAPS, 3-(Cyclohexylamino)-1-propanesulfonic acid], for which, in the data set with Yac cells, the “effect on cell doubling time compared to phosphate buffered saline” value (from here on “effect … compared to phosphate buffered saline”) is “negligable effects on cell doubling time”.

On to `O=S(=O)(O)CC(O)CN(CCO)CCO` (stereo not drawn) [DIPSO, 3-[N--N--bis(2-hydroxyethyl)amino]-2-hydroxypropane-sulfonic acid], for which the “effect … compared to phosphate buffered saline” value in the data set with Yac cells is listed as “negligable effects on cell doubling time”.

For the molecule `CCCCCCCCCCCCCCN1C(=CC=Cc2oc3ccccc3[n+]2CCCCCCCCCCCCCC)Oc2ccccc21` [DiOC14 (3)], in the data set with V79 cells [1], the “Effect on cell viability, Propidium Iodide exclusion” value is recorded as “absence of effect on cell viability” and the “Effect on cell viability, Trypan Blue Exclusion” value was “absence of effect on cell viability”. In the data set with V79 cells [2], the “Cell doubling time of stained cells” value is on record as “unaffected”.

On to `CCCCCCCCCCCCCCN1C(=CC=CC=Cc2sc3ccccc3[n+]2CCCCCCCCCCCCCC)Sc2ccccc21` [DiSC14 (5)], for which, in the data set on rabbit red cells, the “effect on clearance rate of red blood cells” value is “did not affect the clearance rate of red blood cells” and the “lifetime of labelled red cells in circulation” value was determined as 52 days.

As to `O=S(=O)(O)CCCN1CCN(CCO)CC1` [EPPS, N--(2-Hydroxyethyl)piperazine-N'--3-propanesulfonic acid], the “effect … compared to phosphate buffered saline” value with Yac cells is “negligable effects on cell doubling time”.

On to `O=C[C@H](O)[C@@H](O)[C@H](O)[C@H](O)CO` [Glucose], for which the “effect … compared to phosphate buffered saline” value in the data set with Yac cells is given as “negligable effects on cell doubling time”.

In the case of `O=S(=O)(O)CC(O)CN1CCN(CCO)CC1` (stereo not drawn) [HEPPSO, N--2-hydroxyethylpiperazine-N'--2-hydroxypropane-sulfonic acid], the “effect … compared to phosphate buffered saline” value in the data set with Yac cells is given as “negligable effects on cell doubling time”.

Turning to `OC[C@H]1O[C@@](CO)(O[C@H]2O[C@H](CO)[C@@H](O)[C@H](O)[C@H]2O)[C@@H](O)[C@@H]1O` [Sucrose], in the data set with Yac cells, the “Doubling Time” value came out at 41.0 h and the “effect … compared to phosphate buffered saline” value was “negligable effects on cell doubling time”.

In the case of `O=S(=O)(O)CCCNC(CO)(CO)CO` [TAPS, Tris(hydroxymethyl)-methylaminopropane sulfonic acid], the “effect … compared to phosphate buffered saline” value in the data set on Yac cells is listed as “negligable effects on cell doubling time”.

For `CCCCN1C(=O)C(=CC=CC=C2Oc3ccccc3N2CCCS(=O)(=O)O)C(=O)N(CCCC)C1=S` [merocyanine 540], in the data set with cells, the cytotoxicity result is recorded as “cytotoxic when the cell is exposed to light”.

Turning to Phosphate Buffered Saline, the “Doubling Time” value with Yac cells was determined as 31.0 h.
